The text below walks through data of patent US20220143003A1, “COMPOSITIONS AND METHODS TO TREAT NON-ALCOHOLIC FATTY LIVER DISEASES (NAFLD)” (Coherus Biosciences, Inc., priority 2018, published 2022).

Format in all cases: in vivo, male C57BL/6JRj mice
Test [1] deals with DIO-NASH mice. Nature of the test: Plasma total cholesterol (TC) at termination. Particulars: for Plasma total cholesterol (TC) at termination: group mean. The procedure:
For plasma biochemistry, tail blood was drawn directly through the capillary of a Microvette/Vacuette of the right dimension and anticoagulant and mixed by inversion 5 times. Blood was placed at 4° C. until centrifugation at 3000×g for 10 minutes at 4° C. The plasma supernatants were transferred to new tubes and immediately frozen on dry ice and stored at −80° C. until analysis.
Mouse insulin was measured in single determinations using the MSD platform (Meso Scale Diagnostics).
Plasma total cholesterol (TC) at termination (mmol/L). Values expressed as mean of n=12-14+SEM.

In test [2] the test system is DIO-NASH mice. The test can be described thus: Liver Collagen 1A1 (Col1a1) IHC quantified by morphometry. To be noted: for Relative terminal liver Col1a1 by morphometry / Total terminal Col1a1 (% fractional area multiplied with liver weight): group mean. Here is the method: After surgery, the animals were evaluated daily on general health and body weight. […] The pre-biopsy was analyzed to evaluate liver steatosis score and fibrosis stage for study inclusion as outlined by Kleiner et al. (2005) (Table 1). In addition, liver Collagen 1a1 (Col1a1) quantified by morphometry was used to perform a stratified randomization of NASH-affected animals into study groups (see description of histopathological stains and analyses below).
Protein markers of fibrosis (Col1a1), fibrogenesis (α-SMA) and inflammation (Gal-3) were assessed by immunohistochemistry. α-SMA and collagen type I increase in regulation of quiescent hepatic stellate cell activation into myofibroblast-like cells where activated hepatic stellate cells are the main collagen producing cells in the liver (Carpino et al 2005, Hou and Syn 2018) whereas Gal-3 is involved in mediating inflammatory response and considered as a macrophage activation marker (Sciacchitano et al, 2018). For morphometric quantification of liver Col1a1 (using antibody from Southern Biotech, Cat. #1310-01), alpha-smooth muscle actin (α-SMA; using antibody from Abcam, Cat. #Ab124964) and Galectin-3 (using antibody from Biolegend, Cat. #125402), IHC staining was performed using standard procedures. Briefly, after antigen retrieval and blocking of endogenous peroxidase activity, slides were incubated with primary antibody. For all IHC stains, the primary antibody was detected using a polymeric HRP-linker antibody conjugate and visualized using DAB as chromogen. Finally, sections were counterstained in hematoxylin and cover-slipped before scanning.
Quantitative assessment of immunoreactivity is evaluated as follows. IHC-positive staining is quantified by image analysis using the Visiomorph software (Visiopharm, Denmark). Visiomorph protocols are designed to analyze the virtual slides in two steps: 1. Crude detection of tissue at low magnification (1× objective). The liver capsule is excluded. 2. Detection of IHC-positive staining (e.g. green; collagen 1 IHC), tissue (e.g. red) and fat (e.g. pink) at high magnification (10×objective). The quantitative estimate of IHC-positive staining is calculated as an area fraction (AF) according to the following formula:
Liver fibrosis (Col1a1%) at baseline. Values expressed as mean of n=12-14+SEM.
Terminal liver Collagen 1A1 (Col1a1) was quantified by morphometry. Relative Terminal liver Col1a1 (% fractional area) is expressed as mean of n=12-14+SEM.
Total terminal Col1a1 values are in milligrams (% fractional area multiplied with liver weight) and expressed as mean of n=12-14+SEM.

The test system of test [3] is DIO-NASH mice. Nature of the test: Fibrosis stage, Sirius red histopathological scoring of pre- and post-biopsies. To be noted: post- vs pre-study biopsy, trend, p=0.07. The procedure:
Three weeks prior to study start, a pre-biopsy was performed to confirm NASH and for study inclusion of NASH-affected mice only. Briefly, mice were anesthetized with isoflurane (2-3%) in 100% oxygen. A small abdominal incision was made in the midline and the left lateral lobe of the liver exposed. A cone shaped wedge of liver tissue (approximately 50 mg) was excised from the distal portion of the lobe and fixated in 10% neutral buffered formalin (4% formaldehyde) for histopathological analyses. The cut surface of the liver was instantly electro-coagulated using bipolar coagulation (ERBE VIO 100 electrosurgical unit). The liver was returned to the abdominal cavity, the abdominal wall sutured, and the skin closed with staplers. For post-operative recovery, mice received carprofen (5 mg/ml-0.01 ml/10 g) administered subcutaneously on the day of operation and on post-operation day 1 and 2. For Sirius red staining, slides were incubated in Weigert's iron hematoxylin, washed in tap water, stained in Picro-Sirius red and washed twice in acidified water. […] For scoring of NAFLD Activity Score (NAS) and fibrosis stage, HE and Sirius red stained liver sections, respectively, were scored by a histopathology specialist as outlined in Table 10 using the clinical criteria outlined by Kleiner et al. (2005). […] Fibrosis stage is evaluated separately from NAS.

Setting [4] is: CHS-131 High dose (alone or combined).

With `O=S(=O)(Nc1cc(Cl)c(Oc2cnc3ccccc3c2)c(Cl)c1)c1ccc(Cl)cc1Cl` [CHS-131], the “Plasma TC, effect in words” value in the test on DIO-NASH mice [1] (DIO-NASH mice, 12 weeks of treatment, summary of data) is listed as “reduced”. Also, in the test on DIO-NASH mice [1] (DIO-NASH mice, compared to DIO mice administered vehicle only, significant, not in a dose response manner), the “Decrease of plasma cholesterol” value is on record as around 12%. For the same compound, the “Plasma total cholesterol (TC) at termination” value (from here on “Plasma total cholesterol (TC)”) in the test with DIO-NASH mice [1] (setting [4]) worked out at 6.38 mmol/L; in the test with DIO-NASH mice [1] (CHS-131 Low dose) it was 6.45 mmol/L. For the same compound, the “Decrease of terminal Collagen 1a1 (marker of fibrosis)” value in the test with DIO-NASH mice [2] (DIO-NASH mice, compared to vehicle alone, trend) is recorded as 15%. The entries for the “Relative terminal liver Col1a1 by morphometry” value (“Relative terminal liver Col1a1” below) with DIO-NASH mice [2] (setting [4]) and with DIO-NASH mice [2] (CHS-131 Low dose) were 6.77 % fractional area and 6.64 % fractional area, respectively. Also, the “Total terminal Col1a1 (% fractional area multiplied with liver weight)” value in the test with DIO-NASH mice [2] (setting [4]) was 220 milligrams; with DIO-NASH mice [2] (CHS-131 Low dose) it was 213 milligrams. Besides, the “Fibrosis stage: mice with improvement” value with DIO-NASH mice [3] is listed as 5/13.

In the case of `CSc1ccc(C(=O)/C=C/c2cc(C)c(OC(C)(C)C(=O)O)c(C)c2)cc1` [Elafibranor, reference compound], the “Plasma total cholesterol (TC)” value with DIO-NASH mice [1] (setting [4]) is reported as 5.75 mmol/L. In the test on DIO-NASH mice [2] (setting [4]), the “Relative terminal liver Col1a1” value is 6.27 % fractional area and the “Total terminal Col1a1 (% fractional area multiplied with liver weight)” value was determined as 270 milligrams.

On to `OC[C@H]1O[C@@H](c2ccc(Cl)c(Cc3ccc(O[C@H]4CCOC4)cc3)c2)[C@H](O)[C@@H](O)[C@@H]1O` [Empagliflozin, reference compound], for which the “Plasma total cholesterol (TC)” value with DIO-NASH mice [1] (setting [4]) turned out to be 7.62 mmol/L. Besides, in the test on DIO-NASH mice [2] (setting [4]), the “Relative terminal liver Col1a1” value is on record as 7.31 % fractional area and the “Total terminal Col1a1 (% fractional area multiplied with liver weight)” value is recorded as 250 milligrams.
